Literature values in patent US6720472B2, “HMGI proteins in cancer and obesity” (University of Medicine and Dentistry of New Jersey, priority 1996, dated 2004).
“Also recorded” adds a separate entry of the source. Where two headings read alike, the source gives them in different places.

Experiments:
HMG-I proteins = conditions: in vitro, A T-rich DNA
[1] = system: ascites tumors [Ehrlich and sarcoma 180 (S180)]
[2] = system: solid tumors (Ehrlich carcinoma, S180, Walker carcinoma, and Oberling-Guerin-Guerin myeloma)
[3] = system: B-DNA dodecamer of sequence C-G-C-G-A-A-T-T-BrC-G-C-G; conditions: X-ray analysis of the complex

competition with the BD peptide and the HMG-I proteins for DNA binding (HMG-I proteins; listed as distamycin)	Structure (SMILES)	competition with the BD peptide and the HMG-I proteins for DNA binding (HMG-I proteins)	inhibition on ascites tumors ([1]; Ehrlich and sarcoma 180 (S180) ascites tumors)	mitotic damages of tumor cells ([1]; Ehrlich ascites tumor)	mitotic index of the Ehrlich ascites tumor ([1]; Ehrlich ascites tumor)	growth of solid tumors [2]	binding site on DNA [3]
–	CN1CCN(c2ccc3[nH]c(-c4ccc5[nH]c(-c6ccc(O)cc6)nc5c4)nc3c2)CC1 [Hoechst 33258, Hoechst 33258 (bisbenzimide)]	compete with the HMGI proteins for binding to AT-rich DNA; also recorded: effectively compete	–	–	–	–	–
effectively compete	Cn1cc(NC(=O)c2cc(NC(=O)c3cc(NC=O)cn3C)cn2C)cc1C(=O)NCCC(=N)N [distamycin A]	compete with the HMGI proteins for binding to AT-rich DNA	strong inhibition	induces mitotic damages	decrease the mitotic index	delays the growth	–
–	Cn1cc(NC(=O)c2cc(NC(=O)CN=C(N)N)cn2C)cc1C(=O)NCCC(=N)N [netropsin]	compete with the HMGI proteins for binding to AT-rich DNA; also recorded: effectively compete	–	–	–	–	binds within the minor groove
